Molecular target: P-glycoprotein (ABCB1) (Homo sapiens, UniProt P08183)
Experiment: inhibition of P-gp-mediated adriamycin efflux in MCF-7/ADR cells
Assay type: cell-based

P-glycoprotein (ABCB1), sequence (P08183 whole entry): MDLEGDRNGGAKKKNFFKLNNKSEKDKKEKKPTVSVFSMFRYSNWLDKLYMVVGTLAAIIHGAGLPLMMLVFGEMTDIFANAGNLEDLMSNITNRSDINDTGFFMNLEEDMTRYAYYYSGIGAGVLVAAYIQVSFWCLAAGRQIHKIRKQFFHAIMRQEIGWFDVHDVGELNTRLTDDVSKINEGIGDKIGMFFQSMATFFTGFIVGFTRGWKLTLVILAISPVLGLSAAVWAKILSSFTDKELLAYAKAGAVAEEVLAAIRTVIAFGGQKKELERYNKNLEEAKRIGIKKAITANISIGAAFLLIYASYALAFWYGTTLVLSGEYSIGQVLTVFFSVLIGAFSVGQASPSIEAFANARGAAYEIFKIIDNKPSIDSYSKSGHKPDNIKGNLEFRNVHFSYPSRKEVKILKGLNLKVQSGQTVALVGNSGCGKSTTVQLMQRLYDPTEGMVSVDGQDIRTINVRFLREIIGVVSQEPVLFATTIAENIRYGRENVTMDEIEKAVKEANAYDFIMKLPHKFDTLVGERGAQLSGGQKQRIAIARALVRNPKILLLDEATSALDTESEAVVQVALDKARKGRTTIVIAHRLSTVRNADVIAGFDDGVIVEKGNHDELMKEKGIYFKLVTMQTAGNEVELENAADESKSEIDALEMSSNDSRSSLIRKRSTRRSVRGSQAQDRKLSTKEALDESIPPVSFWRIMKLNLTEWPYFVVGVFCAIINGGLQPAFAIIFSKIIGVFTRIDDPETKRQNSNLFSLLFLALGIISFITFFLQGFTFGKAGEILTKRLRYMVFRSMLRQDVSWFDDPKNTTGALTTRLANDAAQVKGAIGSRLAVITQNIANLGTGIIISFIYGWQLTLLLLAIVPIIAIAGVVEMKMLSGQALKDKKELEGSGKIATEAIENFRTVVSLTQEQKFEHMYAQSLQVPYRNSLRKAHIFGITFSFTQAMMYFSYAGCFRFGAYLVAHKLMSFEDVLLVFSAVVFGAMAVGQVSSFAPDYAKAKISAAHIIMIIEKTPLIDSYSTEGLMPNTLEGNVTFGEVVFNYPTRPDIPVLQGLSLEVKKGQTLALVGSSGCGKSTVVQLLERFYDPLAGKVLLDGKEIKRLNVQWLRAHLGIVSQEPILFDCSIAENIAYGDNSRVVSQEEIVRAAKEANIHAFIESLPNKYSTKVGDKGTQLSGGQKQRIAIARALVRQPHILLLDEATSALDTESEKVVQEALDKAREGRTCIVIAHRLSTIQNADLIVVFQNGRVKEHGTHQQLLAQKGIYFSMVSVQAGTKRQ

SMILES	IC50 [nM]
CC(=O)O[C@@H]1[C@@H](C)[C@H]2[C@@H]([C@H]3[C@@H](OC(=O)c4ccccc4)[C@H](C)C[C@@]31OC(C)=O)[C@]1(C)C=CC(=O)C(C)(C)[C@H]21 [compound 1, Heliosterpenoid A]	1280
CC(=O)O[C@H]1[C@@H](C)[C@H]2[C@@H]([C@H]3[C@@H](OC(=O)c4ccccc4)[C@@H](C)C[C@@]31O)[C@]1(C)C(=O)C=CC(C)(C)[C@H]21 [compound 2, Heliosterpenoid B]	1020

From article PMC5501787, “Heliosterpenoids A and B, two Novel Jatrophane-Derived Diterpenoids with a 5/6/4/6 Ring System from Euphorbia helioscopia” (Scientific Reports, 2017)
